According to patent US20230184759A1, “IN VITRO METHOD FOR DETECTION OF INFECTIONS CAUSED BY PSEUDOMONAS AERUGINOSA” (CONSEJO SUPERIOR DE INVESTIGACIONES CIENTIFICAS (CSIC), priority 2020, published 2023):

Columns and labels:
Type in all cases: binding, rabbit
As382 = test: Competitive indirect ELISA for detection of HHQ (As382, coating antigen I-7); settings: for C.R. (Cross Reactivity): As382 (HHQ) assay, relative to HHQ
Description: (§1) The competitive assay was carried out in a 96 well Maxisorp flat-bottom plates, coated using 100 μL of a BSA conjugate solution in coating buffer pH=9.6. Then, plates were covered with adhesive plate sealer and incubated overnight at 4° C. The day after, plates were washed with PBST (4×300 μL) using the platewasher Biotek ELx405 HT. Sequentially, 50 μL of the corresponding sample solution, containing the analyte HHQ, PQS or HQNO (2 μM to 0.13 nM) or MH medium were added, followed by 50 μL addition of a fixed As dilution and left without agitation 30 min at RT. After another washing step, a 1/6000 dilution of goat AntiRabbit IgG-HRP in PBST was added and incubated 30 min at RT. After a final washing, 100 μL of a substrate solution was added and left 30 min at RT in the dark. Once the time was consumed, the enzymatic reaction was stopped by adding 50 μl of H2SO4 4M solution and the absorbances read at 450 nm. Absorbance data were plotted and analyzed using GraphPad software. The standard calibration curve was fitted to a four-parameter equation according to the following formula: […], where A is the maximum absorbance, B is the minimum absorbance, C is the concentration producing 50% of the maximal absorbance, and D is the slope at the inflection point of the sigmoid curve. Unless otherwise indicated, the data presented correspond to the average of at least two well replicates.
(§2) Regarding specificity studies, it was followed the experimental procedure for indirect competitive ELISA described above. It was assessed the avidity of As versus other quinolone effector molecules of the pqs system from P. aeruginosa. Each assay was run using HHQ, PQS and HQNO as analyte. Cross reactivity was calculated through the equation: […].

As385 = test: Competitive indirect ELISA for detection of PQS (As385, coating antigen I-5); settings: for C.R. (Cross Reactivity): As385 (PQS) assay, relative to PQS
Description: as §1, §2

As389 = test: Competitive indirect ELISA for detection of HQNO (As389, coating antigen I-5); settings: for C.R. (Cross Reactivity): As389 (HQNO) assay, relative to HQNO
Description: as §1, §2

[1] = cross reactivity study, As382 (HHQ) assay conditions
[2] = cross reactivity study, As385 (PQS) assay conditions
[3] = cross reactivity study, As389 (HQNO) assay conditions

| SMILES | C.R. (Cross Reactivity) (As382) | IC50 (As382; MH diluted 1/5, As382 dil. 1/64000, I-7 0.156 μg/mL) | IC50 (As382; PBST, As382 dil. 1/32000, I-7 0.313 μg/mL) | IC50 (As382; [1]) | C.R. (Cross Reactivity) (As385) | IC50 (As385; [2]) | C.R. (Cross Reactivity) (As389) | IC50 (As389; [3]) | IC50 (As389; MH diluted 1/5, As389 dil. 1/16000, I-5 0.250 μg/mL) | IC50 (As389; PBS at pH = 6.5, As389 dil. 1, I-5 0.250 μg/mL) | IC50 (As385; MH diluted 1/10, As385 dil. 1/64000, I-5 0.039 μg/mL) | IC50 (As385; PBS + 0.01% Tween + 0.1 mM EDTA, As385 dil. 1/48000, I-5 0.039 μg/mL) |
| --- | --- | --- | --- | --- | --- | --- | --- | --- | --- | --- | --- | --- |
| CCCCCCCc1cc(=O)c2ccccc2[nH]1 [HHQ, 2-heptyl-4-quinolone] | 100.00% | 2.85 ± 0.296 nM | 4.59 ± 0.287 nM | 2.67 nM | 13.31% | 27.2 nM | 36.24% | 26.4 nM | – | – | – | – |
| CCCCCCCc1cc(=O)c2ccccc2n1O [HQNO, 2-heptyl-4-quinolone N-oxide] | 3.11% | – | – | 86 nM | 1.53% | 236 nM | 100.00% | 9.55 nM | 2.71 ± 0.035 nM | 4.2 ± 0.858 nM | – | – |
| CCCCCCCc1[nH]c2ccccc2c(=O)c1O [PQS, 2-heptyl-3-hydroxy-4-quinolone] | 7.16% | – | – | 37.3 nM | 100.00% | 3.62 nM | 5.41% | 177 nM | – | – | 6.05 ± 0.155 nM | 3.87 ± 0.529 nM |
